Data taken from patent publication US20070225242A1, “Method and composition for treating and preventing tumor metastasis in vivo” (The Board of Trustees of the Leland Stanford Junior …, priority 2005, published 2007).

B1: catalase: catalase (Sigma), removes hydrogen peroxide, a by-product of LOX activity (protein, UniProt P00432 2-527, looked up)
Catalase: ADNRDPASDQMKHWKEQRAAQKPDVLTTGGGNPVGDKLNSLTVGPRGPLLVQDVVFTDEMAHFDRERIPERVVHAKGAGAFGYFEVTHDITRYSKAKVFEHIGKRTPIAVRFSTVAGESGSADTVRDPRGFAVKFYTEDGNWDLVGNNTPIFFIRDALLFPSFIHSQKRNPQTHLKDPDMVWDFWSLRPESLHQVSFLFSDRGIPDGHRHMNGYGSHTFKLVNANGEAVYCKFHYKTDQGIKNLSVEDAARLAHEDPDYGLRDLFNAIATGNYPSWTLYIQVMTFSEAEIFPFNPFDLTKVWPHGDYPLIPVGKLVLNRNPVNYFAEVEQLAFDPSNMPPGIEPSPDKMLQGRLFAYPDTHRHRLGPNYLQIPVNCPYRARVANYQRDGPMCMMDNQGGAPNYYPNSFSAPEHQPSALEHRTHFSGDVQRFNSANDDNVTQVRTFYLKVLNEEQRKRLCENIAGHLKDAQLFIQKKAVKNFSDVHPEYGSRIQALLDKYNEEKPKNAVHTYVQHGSHLSAREKANL

Tests used:
Format in all cases: cell-based
human cancer cells = test: Cell viability; conditions: data not shown
MDA231 and SiHa cells = test: In vitro invasion assay (Matrigel-coated inserts); conditions: various human cancer cells; 24 hr oxygen deprived
Procedure: The first step of the metastatic process is cell invasion. […] The invasion of various human cancer cells in vitro was examined. […] Because LOX is a copper-dependent enzyme that can act intracellularly or extracellularly, cells were treated with bathocuprione disulphonate (BCS), a copper chelator that cannot permeate the cell membrane.
Invasive behavior was examined in vitro as previously described. Briefly, cells were serum deprived for 24 h then 2.5×10^4 cells were seeded in triplicate on both Matrigel-coated and uncoated inserts, moved to chambers containing 750 μl of FBS as a chemo-attractant and incubated at in normoxic or oxygen deprived conditions for 24 hr. Treatments with beta-aminoproprionitrile or bathocuprione disulphonate (Sigma) were performed 24 h prior to serum deprivation, and continued throughout the experiment.

FAK = FAK phosphorylation (phospho-FAK immunoblot); conditions: cells expressing LOX shRNA transfected with mature LOX
Text: Acquisition of motility is required before cells can migrate and invade. Invasive cell migration is a multi-step process^17 that commences with pseudopod protrusion at the leading edge driven by actin polymerization, resulting in focal adhesion formation and the activation of integrin and focal adhesion kinase (FAK). […] LOX protein expression extended along hairlike fibers protruding from the cell surface into the collagen matrix. […] Remodeling of the actin cytoskeleton with increased formation of stress fibers and focal adhesion in MDA231 control cells particularly in hypoxia was observed, which were not seen in cells expressing LOX shRNA.
A role for fibronectin (FN) was sought, because it was strongly associated with LOX expression in the breast cancer microarray data set that was analyzed (data not shown), is reported to regulate invasion, bind to integrins and interact with LOX, and is hypoxia induced. […] FAK phosphorylation could be induced in the cells expressing LOX shRNA by transfection with mature LOX (but not catalytically dead LOX), confirming a role for LOX in FAK phosphorylation. […]
Methods were performed as previously described. […] LOX was analyzed by using a rabbit polyclonal antibody raised against a synthetic peptide of human LOX (EDTSCDYGYHRRFA (SEQ ID NO:1); Open Biosystems). […] Quantification was performed with ImageQuant software.

Row | Molecule | cell viability (human cancer cells) | increased invasion under hypoxia or anoxia (MDA231 and SiHa cells) | FAK phosphorylation induced by transfection with mature LOX (FAK)
1 | Cc1cc(-c2ccc(S(=O)(=O)O)cc2)c2ccc3c(-c4ccc(S(=O)(=O)O)cc4)cc(C)nc3c2n1 [BCS, bathocuprione disulphonate] | Neither treatment with BAPN nor treatment with BCS affected cell viability | prevented the enhanced invasion of hypoxic cells | –
2 | B1 | – | – | could be prevented
